# Source: the supplement of paper PMC11208160
# Assay: recombinant UMI read abundance after kanamycin selection (control-corrected) (log10(CPM+1)); higher = more efficient recombination; extreme values may be limits of the assay; sequences stand for … in AGTGCAGAGAAAATCGGCCAGTTTTCTCTGCCTGCAGTCCGCATGCCGTGGGACCCCTTGGGTTCTAACCTGTTGCCTAGATTTATGCAGCGGACTGCCTTTCTCCCAAAGTGATAAACCGG…AGGTTGGTTTCACT; site = the 11-nt donor
# Experimental: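 Pooled E. coli donor-specificity screen for the IS621 bridge recombinase. Each library member carries a reprogrammed 11-nt donor and a full-length LE bridge RNA expressed in cis from the natural promoter, with a paired donor-binding loop (8-nt LDG + 4-nt RDG) and a target-binding loop fixed to T5. It is co-electroporated with a T5 target plasmid; recombinase is induced with 0.07 mM IPTG and recombinants are selected on kanamycin. UMIs are counted as CPM, averaged over two biological replicates and corrected by the unselected control. Molecule = full bridge RNA written as DNA, built from the T5 scaffold: LDG = donor specificity nt 1-8, RDG = reverse complement of nt 8-11.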
# 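Further: IS621 bridge recombinase in Escherichia coli cells against a fixed T5 target plasmid.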
row,Sequence,recombinant UMI read abundance (log10)
1,AAAACTTCATGGACCGGTTTTCCCGGTAATCCGTATTTGTC (site AAAACTTCTGA),0
2,AAAAGTCCATGGACCGGTTTTCCCGGTAATCCGTATTTGTA (site AAAAGTCCTTA),0.66
3,AAAAGTCCATGGACCGGTTTTCCCGGTAATCCGTATTTGTA (site CAAAGTCCTTA),0.48
4,AAAAGTCCATGGACCGGTTTTCCCGGTAATCCGTATTTGTA (site GAAAGTCCTTA),0.273
5,AAAAGTCCATGGACCGGTTTTCCCGGTAATCCGTATTTGTA (site TAAAGTCCTTA),1.12
6,AAACATCCATGGACCGGTTTTCCCGGTAATCCGTATTTGAC (site AAACATCCTGT),1.26
7,AAACATCCATGGACCGGTTTTCCCGGTAATCCGTATTTGAC (site ACACATCCTGT),0
8,AAACATCCATGGACCGGTTTTCCCGGTAATCCGTATTTGAC (site AGACATCCTGT),0
9,AAACATCCATGGACCGGTTTTCCCGGTAATCCGTATTTGAC (site ATACATCCTGT),0
10,AAACGTCCATGGACCGGTTTTCCCGGTAATCCGTATTTGTT (site AAACGTCCTAA),0.525
11,AAACTTACATGGACCGGTTTTCCCGGTAATCCGTATTTGCA (site AAACTTACTTG),1.52
12,AAACTTGCATGGACCGGTTTTCCCGGTAATCCGTATTTGGC (site AAACTTGCTGC),0
13,AAAGAAGCATGGACCGGTTTTCCCGGTAATCCGTATTTGGA (site AAAGAAGCTTC),1.94
14,AAAGAGGCATGGACCGGTTTTCCCGGTAATCCGTATTTGCA (site AAAGAGGCTTG),2.9
15,AAAGATCCATGGACCGGTTTTCCCGGTAATCCGTATTTGCC (site AAAGATCCTGG),0
16,AAAGCAGCATGGACCGGTTTTCCCGGTAATCCGTATTTGCT (site AAAGCAGCTAG),1.82

row,Sequence,recombinant UMI read abundance (log10)
1,AAAGCAGCATGGACCGGTTTTCCCGGTAATCCGTATTTGCT (site CAAGCAGCTAG),1.5
2,AAAGCAGCATGGACCGGTTTTCCCGGTAATCCGTATTTGCT (site GAAGCAGCTAG),0.198
3,AAAGCAGCATGGACCGGTTTTCCCGGTAATCCGTATTTGCT (site TAAGCAGCTAG),1.67
4,AAAGCCACATGGACCGGTTTTCCCGGTAATCCGTATTTGTA (site AAAGCCACTTA),1.82
5,AAAGGTACATGGACCGGTTTTCCCGGTAATCCGTATTTGAG (site AAAGGTACTCT),2.1
6,AAAGGTTCATGGACCGGTTTTCCCGGTAATCCGTATTTGGG (site AAAGGTTCTCC),1.05
7,AAAGTAACATGGACCGGTTTTCCCGGTAATCCGTATTTGCA (site AAAGTAACTTG),2.88
8,AAAGTAACATGGACCGGTTTTCCCGGTAATCCGTATTTGCA (site ACAGTATCTTG),2.56
9,AAAGTACCATGGACCGGTTTTCCCGGTAATCCGTATTTGCG (site AAAGTACCTCG),0.0963
10,AAAGTCTCATGGACCGGTTTTCCCGGTAATCCGTATTTGAT (site AAAGTCTCTAT),3.17
11,AAAGTCTCATGGACCGGTTTTCCCGGTAATCCGTATTTGCA (site AAAGTCTCTTG),3.16
12,AAAGTCTCATGGACCGGTTTTCCCGGTAATCCGTATTTGCA (site ACAGTATCTTG),1.99
13,AAATAACCATGGACCGGTTTTCCCGGTAATCCGTATTTGAA (site AAATAACCTTT),0
14,AAATAAGCATGGACCGGTTTTCCCGGTAATCCGTATTTGGG (site AAATAAGCTCC),0.434
15,AAATCCGCATGGACCGGTTTTCCCGGTAATCCGTATTTGTC (site AAATCCGCTGA),2.33
16,AAATGGGCATGGACCGGTTTTCCCGGTAATCCGTATTTGCT (site AAATGGGCTAG),2.28
